Data from publication PMC5218480 (PLoS ONE, 2017).

System: MV-4-11 cells
Test: Gene expression microarray analysis (Affymetrix PrimeView) and GSEA
Format: cell-based, human
Parameters: RFU PODN (11730768_x_at) / Fold change /veh PODN (11730768_x_at) / RFU LINC00158 (11744669_a_at) / Fold change /veh LINC00158 (11744669_a_at) / RFU DUSP10 (11751237_a_at) / Fold change /veh DUSP10 (11751237_a_at) / RFU ID3 (11757404_x_at) / Fold change /veh ID3 (11757404_x_at) / RFU PLEKHG5 (11737974_s_at) / Fold change /veh PLEKHG5 (11737974_s_at) / RFU LRRC4B (11730491_at) / Fold change /veh LRRC4B (11730491_at) / RFU GIMAP4 (11747438_a_at) / Fold change /veh GIMAP4 (11747438_a_at) / RFU KRT8 (11758183_x_at) / Fold change /veh KRT8 (11758183_x_at) / RFU CNN1 (11734310_a_at) / Fold change /veh CNN1 (11734310_a_at) / RFU VPS37D (11726825_at) / Fold change /veh VPS37D (11726825_at) / RFU C10orf10 (11716522_x_at) / Fold change /veh C10orf10 (11716522_x_at) / RFU KIR2DL2 /// KIR2DL4 /// KIR2DL5A /// KIR2DL5B /// KIR2DS1 /// KIR2DS2 /// KIR2DS3 /// KIR2DS4 /// KIR3DL3 /// KIR3DL3 /// KIR3DS1 (11738374_at) / Fold change /veh KIR2DL2 /// KIR2DL4 /// KIR2DL5A /// KIR2DL5B /// KIR2DS1 /// KIR2DS2 /// KIR2DS3 /// KIR2DS4 /// KIR3DL3 /// KIR3DL3 /// KIR3DS1 (11738374_at) / RFU C1QL1 (11718748_at) / Fold change /veh C1QL1 (11718748_at) / RFU TMPRSS4 (11747572_a_at) / Fold change /veh TMPRSS4 (11747572_a_at) / RFU HAMP (11756126_x_at) / Fold change /veh HAMP (11756126_x_at) / RFU RNFT2 (11725882_a_at) / Fold change /veh RNFT2 (11725882_a_at) / RFU NR4A2 (11747474_a_at) / Fold change /veh NR4A2 (11747474_a_at) / RFU ABCC12 (11746883_a_at) / Fold change /veh ABCC12 (11746883_a_at) / RFU TMEM136 (11760407_x_at) / Fold change /veh TMEM136 (11760407_x_at) / RFU CLDN22 /// WWC2 (11732394_at) / Fold change /veh CLDN22 /// WWC2 (11732394_at) / RFU HLA-DPB1 (11760878_x_at) / Fold change /veh HLA-DPB1 (11760878_x_at) / RFU SPINT1 (11716480_a_at) / Fold change /veh SPINT1 (11716480_a_at) / RFU GAP43 (11754022_s_at) / Fold change /veh GAP43 (11754022_s_at) / RFU A4GNT (11735810_at) / Fold change /veh A4GNT (11735810_at) / RFU PRB3 (11715151_x_at) / Fold change /veh PRB3 (11715151_x_at) / RFU TUBB4B (11761932_at) / Fold change /veh TUBB4B (11761932_at) / RFU CAPN14 (11732068_a_at) / Fold change /veh CAPN14 (11732068_a_at) / RFU TMCC2 (11721928_a_at) / Fold change /veh TMCC2 (11721928_a_at) / RFU IRGQ (11745062_a_at) / Fold change /veh IRGQ (11745062_a_at) / RFU FAM174B (11720279_a_at) / Fold change /veh FAM174B (11720279_a_at) / RFU TMPRSS4 (11748680_a_at) / Fold change /veh TMPRSS4 (11748680_a_at) / RFU FAM212B (11763350_a_at) / Fold change /veh FAM212B (11763350_a_at) / RFU PLEKHG5 (11743358_a_at) / Fold change /veh PLEKHG5 (11743358_a_at) / RFU ZSCAN30 (11745921_a_at) / Fold change /veh ZSCAN30 (11745921_a_at) / RFU CMKLR1 (11741424_a_at) / Fold change /veh CMKLR1 (11741424_a_at) / RFU LOC101060620 /// MAPK8IP1 (11723275_at) / Fold change /veh LOC101060620 /// MAPK8IP1 (11723275_at) / RFU SPTSSB (11747773_x_at) / Fold change /veh SPTSSB (11747773_x_at) / RFU PRSS12 (11739890_at) / Fold change /veh PRSS12 (11739890_at) / RFU BIN1 (11741810_x_at) / Fold change /veh BIN1 (11741810_x_at) / RFU WNT11 (11732464_a_at) / Fold change /veh WNT11 (11732464_a_at) / RFU C10orf10 (11716521_a_at) / Fold change /veh C10orf10 (11716521_a_at) / RFU C5orf56 (11738089_at) / Fold change /veh C5orf56 (11738089_at) / RFU CYB561 (11721691_x_at) / Fold change /veh CYB561 (11721691_x_at) / RFU ANKRD19P (11752326_a_at) / Fold change /veh ANKRD19P (11752326_a_at) / RFU OR2T12 /// OR2T33 /// OR2T8 (11738714_s_at) / Fold change /veh OR2T12 /// OR2T33 /// OR2T8 (11738714_s_at) / RFU VCAN (11748164_a_at) / Fold change /veh VCAN (11748164_a_at) / RFU JSRP1 (11732532_at) / Fold change /veh JSRP1 (11732532_at) / RFU KRTAP10-11 (11738290_x_at) / Fold change /veh KRTAP10-11 (11738290_x_at) / RFU MYO3A (11730013_a_at) / Fold change /veh MYO3A (11730013_a_at) / RFU EBF3 (11725865_a_at) / Fold change /veh EBF3 (11725865_a_at) / RFU CAMK2N1 (11719241_x_at) / Fold change /veh CAMK2N1 (11719241_x_at) / RFU C5orf56 (11738088_a_at) / Fold change /veh C5orf56 (11738088_a_at) / RFU OLFML3 (11715873_a_at) / Fold change /veh OLFML3 (11715873_a_at) / RFU LOC100653217 /// NTM (11731650_a_at) / Fold change /veh LOC100653217 /// NTM (11731650_a_at) / RFU MAPK11 (11762145_a_at) / Fold change /veh MAPK11 (11762145_a_at) / RFU FIZ1 (11724087_x_at) / Fold change /veh FIZ1 (11724087_x_at) / RFU OASL (11726364_x_at) / Fold change /veh OASL (11726364_x_at) / RFU SOX15 (11748057_x_at) / Fold change /veh SOX15 (11748057_x_at) / RFU CD79A (11719716_a_at) / Fold change /veh CD79A (11719716_a_at) / RFU HIST1H1D (11736915_at) / Fold change /veh HIST1H1D (11736915_at) / RFU CASKIN2 (11723855_a_at) / Fold change /veh CASKIN2 (11723855_a_at) / RFU LOC730098 (11760151_x_at) / Fold change /veh LOC730098 (11760151_x_at) / RFU OR4N2 (11742367_at) / Fold change /veh OR4N2 (11742367_at) / RFU PRRT2 (11749266_a_at) / Fold change /veh PRRT2 (11749266_a_at) / RFU SNX32 (11753110_a_at) / Fold change /veh SNX32 (11753110_a_at) / RFU CDHR5 (11726645_a_at) / Fold change /veh CDHR5 (11726645_a_at) / RFU RCAN1 (11760418_a_at) / Fold change /veh RCAN1 (11760418_a_at) / RFU FAM167A (11723789_a_at) / Fold change /veh FAM167A (11723789_a_at) / RFU FAM26E (11764081_at) / Fold change /veh FAM26E (11764081_at) / RFU ISYNA1 (11749810_s_at) / Fold change /veh ISYNA1 (11749810_s_at) / RFU ACY1 (11761880_at) / Fold change /veh ACY1 (11761880_at) / RFU 11764098_at / Fold change /veh 11764098_at / RFU SAMD14 (11745864_x_at) / Fold change /veh SAMD14 (11745864_x_at) / RFU NPB (11741838_a_at) / Fold change /veh NPB (11741838_a_at) / RFU TMPRSS6 (11731388_a_at) / Fold change /veh TMPRSS6 (11731388_a_at) / RFU KRTAP10-2 (11738614_at) / Fold change /veh KRTAP10-2 (11738614_at) / RFU ARHGAP8 /// PRR5-ARHGAP8 (11727945_x_at) / Fold change /veh ARHGAP8 /// PRR5-ARHGAP8 (11727945_x_at) / RFU KRTAP5-7 /// NADSYN1 (11734609_at) / Fold change /veh KRTAP5-7 /// NADSYN1 (11734609_at) / RFU RASL12 (11751679_a_at) / Fold change /veh RASL12 (11751679_a_at) / RFU CDKN2B (11736163_a_at) / Fold change /veh CDKN2B (11736163_a_at) / RFU PRF1 (11729649_at) / Fold change /veh PRF1 (11729649_at) / RFU, ZNF638 /// ZNF638-IT1 / Fold change vs veh, ZNF638 /// ZNF638-IT1 / RFU, PANK3 / Fold change vs veh, PANK3 / RFU, SH3YL1 / Fold change vs veh, SH3YL1 / RFU, ZEB2 / Fold change vs veh, ZEB2 / RFU, NRIP1 / Fold change vs veh, NRIP1 / RFU, PTTG1IP / Fold change vs veh, PTTG1IP / RFU, CAPN2 / Fold change vs veh, CAPN2 / RFU, MED14 / Fold change vs veh, MED14 / RFU, SNORA58 / Fold change vs veh, SNORA58 / RFU, C1orf63 / Fold change vs veh, C1orf63 / RFU, LRRFIP1 / Fold change vs veh, LRRFIP1 / RFU, NDUFAF7 / Fold change vs veh, NDUFAF7 / RFU, SLC12A2 / Fold change vs veh, SLC12A2 / RFU, IBTK / Fold change vs veh, IBTK / RFU, ESF1 / Fold change vs veh, ESF1 / Fold change vs veh, TMEM50B / RFU, TAOK1 / Fold change vs veh, TAOK1 / RFU, ACBD3 / Fold change vs veh, ACBD3 / RFU, TMA16 / Fold change vs veh, TMA16 / RFU, RWDD3 / Fold change vs veh, RWDD3 / RFU, BCAT1 / Fold change vs veh, BCAT1 / RFU, EDEM3 / Fold change vs veh, EDEM3 / RFU, TMEM33 / Fold change vs veh, TMEM33 / RFU, WDR75 / Fold change vs veh, WDR75 / RFU, AHCTF1 / Fold change vs veh, AHCTF1 / RFU, TFRC / Fold change vs veh, TFRC / RFU, ZDHHC17 / Fold change vs veh, ZDHHC17 / RFU, NOM1 / Fold change vs veh, NOM1 / RFU, ARL8B / Fold change vs veh, ARL8B / RFU, ZBTB11 / Fold change vs veh, ZBTB11 / RFU, TAMM41 / Fold change vs veh, TAMM41 / RFU, KIAA1704 /// LOC100996395 / Fold change vs veh, KIAA1704 /// LOC100996395 / RFU, ING1 / Fold change vs veh, ING1 / RFU, TRMT61B / Fold change vs veh, TRMT61B / RFU, FUBP3 / Fold change vs veh, FUBP3 / RFU, TP53 / Fold change vs veh, TP53 / RFU, TNKS2 / Fold change vs veh, TNKS2 / RFU, ZFP14 / Fold change vs veh, ZFP14 / RFU, ACTR2 / Fold change vs veh, ACTR2 / RFU, PPP3R1 / Fold change vs veh, PPP3R1 / RFU, PIK3R1 / Fold change vs veh, PIK3R1 / RFU, HNRNPA1 / Fold change vs veh, HNRNPA1 / RFU, RNF170 / Fold change vs veh, RNF170 / RFU, ZNF28 / Fold change vs veh, ZNF28 / RFU, RNGTT / Fold change vs veh, RNGTT / RFU, OGT / Fold change vs veh, OGT / RFU, BRD1 / Fold change vs veh, BRD1 / RFU, MARS / Fold change vs veh, MARS / RFU, ZNF655 / Fold change vs veh, ZNF655 / RFU, FAHD1 / Fold change vs veh, FAHD1 / RFU, BDP1 / Fold change vs veh, BDP1 / RFU, LRRCC1 / Fold change vs veh, LRRCC1 / RFU, ARID1A / Fold change vs veh, ARID1A / RFU, ZNF146 / Fold change vs veh, ZNF146 / RFU, ZNF330 / Fold change vs veh, ZNF330 / RFU, GPN3 / Fold change vs veh, GPN3 / RFU, C9orf123 / Fold change vs veh, C9orf123 / RFU, N4BP2L2 / Fold change vs veh, N4BP2L2 / RFU, ARFIP1 / Fold change vs veh, ARFIP1 / RFU, FAM179B / Fold change vs veh, FAM179B / RFU, BCL10 / Fold change vs veh, BCL10 / RFU, UHRF1BP1L / Fold change vs veh, UHRF1BP1L / RFU, BET1 / Fold change vs veh, BET1 / RFU, CNOT2 / Fold change vs veh, CNOT2 / RFU, ZNF268 / Fold change vs veh, ZNF268 / Fold change vs veh, ZNF507 / RFU, DGCR2 / Fold change vs veh, DGCR2 / RFU, WDSUB1 / Fold change vs veh, WDSUB1 / Fold change vs veh, HSP90B1 /// MIR3652 / RFU, ADSS / Fold change vs veh, ADSS / RFU, GK / Fold change vs veh, GK / RFU, ZNF148 / Fold change vs veh, ZNF148 / RFU, TAF9 / Fold change vs veh, TAF9 / RFU, SLC1A5 / Fold change vs veh, SLC1A5 / RFU, SLMO2 / Fold change vs veh, SLMO2 / RFU, ABCC4 / Fold change vs veh, ABCC4 / RFU, LOC101060439 /// RAP1B / Fold change vs veh, LOC101060439 /// RAP1B / RFU, RFX7 / Fold change vs veh, RFX7 / RFU, GTPBP10 / Fold change vs veh, GTPBP10 / RFU, CNEP1R1 / Fold change vs veh, CNEP1R1 / RFU, BIVM-ERCC5 /// ERCC5 / Fold change vs veh, BIVM-ERCC5 /// ERCC5 / RFU, ILF3 / Fold change vs veh, ILF3 / RFU 11762660_at / Fold change /veh 11762660_at / RFU VCAN (11757783_s_at) / Fold change /veh VCAN (11757783_s_at) / RFU DDX43 (11728927_at) / Fold change /veh DDX43 (11728927_at) / RFU KRT8 (11758188_x_at) / Fold change /veh KRT8 (11758188_x_at) / RFU NKD1 (11759106_at) / Fold change /veh NKD1 (11759106_at) / RFU SRD5A1 (11742802_a_at) / Fold change /veh SRD5A1 (11742802_a_at) / RFU TPSAB1 /// TPSB2 (11721975_s_at) / Fold change /veh TPSAB1 /// TPSB2 (11721975_s_at) / RFU GSTM3 (11746129_a_at) / Fold change /veh GSTM3 (11746129_a_at) / RFU IL23R (11737362_x_at) / Fold change /veh IL23R (11737362_x_at) / RFU TMEM51 (11727254_a_at) / Fold change /veh TMEM51 (11727254_a_at) / RFU PIWIL2 (11732686_x_at) / Fold change /veh PIWIL2 (11732686_x_at) / RFU ORM1 (11744905_x_at) / Fold change /veh ORM1 (11744905_x_at) / RFU CCDC152 (11743942_at) / Fold change /veh CCDC152 (11743942_at) / RFU ECM1 (11717891_a_at) / Fold change /veh ECM1 (11717891_a_at) / RFU IL23R (11748794_a_at) / Fold change /veh IL23R (11748794_a_at) / RFU TNFAIP8L3 (11732012_x_at) / Fold change /veh TNFAIP8L3 (11732012_x_at) / RFU MBOAT4 (11741988_at) / Fold change /veh MBOAT4 (11741988_at) / RFU 11764193_at / Fold change /veh 11764193_at / RFU TMEM53 (11763286_at) / Fold change /veh TMEM53 (11763286_at) / RFU MAGEB2 (11727129_at) / Fold change /veh MAGEB2 (11727129_at) / RFU TMEM200A (11744735_a_at) / Fold change /veh TMEM200A (11744735_a_at) / RFU CCDC152 (11751479_a_at) / Fold change /veh CCDC152 (11751479_a_at) / RFU FAM211A (11726209_a_at) / Fold change /veh FAM211A (11726209_a_at) / RFU RGS16 (11746705_a_at) / Fold change /veh RGS16 (11746705_a_at) / RFU VCAN (11755009_s_at) / Fold change /veh VCAN (11755009_s_at) / RFU RHOB (11743442_s_at) / Fold change /veh RHOB (11743442_s_at) / RFU RGS16 (11720943_a_at) / Fold change /veh RGS16 (11720943_a_at) / RFU RGS16 (11720944_at) / Fold change /veh RGS16 (11720944_at) / RFU, VPS4B / Fold change vs veh, VPS4B / RFU, CREB1 / Fold change vs veh, CREB1 / RFU, DNAJC13 / Fold change vs veh, DNAJC13 / RFU, GNAQ / Fold change vs veh, GNAQ / RFU, CDK5R1 / Fold change vs veh, CDK5R1 / RFU, ZRANB3 / Fold change vs veh, ZRANB3 / RFU, CUL4A / Fold change vs veh, CUL4A / RFU, CCNY / Fold change vs veh, CCNY / RFU, UFL1 / Fold change vs veh, UFL1 / RFU, COG3 / Fold change vs veh, COG3 / RFU, DIAPH2 / Fold change vs veh, DIAPH2 / RFU, SKA2 / Fold change vs veh, SKA2 / RFU, AFF3 / Fold change vs veh, AFF3 / RFU, LMF1 / Fold change vs veh, LMF1 / RFU, IPO11 / Fold change vs veh, IPO11 / RFU, DFFB / Fold change vs veh, DFFB / RFU, FOXP1 / Fold change vs veh, FOXP1 / RFU, CARD8 / Fold change vs veh, CARD8 / RFU, STRN3 / Fold change vs veh, STRN3 / RFU, ADK / Fold change vs veh, ADK / RFU, RASSF2 / Fold change vs veh, RASSF2 / RFU, WIPF1 / Fold change vs veh, WIPF1 / RFU, LARP1B / Fold change vs veh, LARP1B / RFU, RASA1 / Fold change vs veh, RASA1 / RFU, RB1 / Fold change vs veh, RB1 / RFU, PPFIA1 / Fold change vs veh, PPFIA1 / RFU, MAT2A / Fold change vs veh, MAT2A / RFU, CCT5 / Fold change vs veh, CCT5 / RFU, WDR92 / Fold change vs veh, WDR92 / RFU, CUX1 / Fold change vs veh, CUX1 / RFU, TTC7A / Fold change vs veh, TTC7A / RFU, TMEM135 / Fold change vs veh, TMEM135 / RFU, DEPTOR / Fold change vs veh, DEPTOR / RFU, CPM / Fold change vs veh, CPM / RFU, DNAJB6 / Fold change vs veh, DNAJB6 / RFU, CACNA2D3 / Fold change vs veh, CACNA2D3 / RFU, DTX4 / Fold change vs veh, DTX4 / RFU, TFCP2 / Fold change vs veh, TFCP2 / RFU, GMCL1 /// GMCL1P1 / Fold change vs veh, GMCL1 /// GMCL1P1 / RFU, AEBP2 / Fold change vs veh, AEBP2 / RFU, SNHG1 /// SNORD22 /// SNORD25 /// SNORD26 /// SNORD27 /// SNORD28 /// SNORD29 /// SNORD31 / Fold change vs veh, SNHG1 /// SNORD22 /// SNORD25 /// SNORD26 /// SNORD27 /// SNORD28 /// SNORD29 /// SNORD31 / Fold change (Aza/veh), C12orf56 (ProbeSet 11735607_a_at) / Fold change (ACY-1035/veh), C12orf56 (ProbeSet 11735607_a_at) / Fold change (Aza/veh), FGFR1OP (ProbeSet 11751329_s_at) / Fold change (ACY-1035/veh), FGFR1OP (ProbeSet 11751329_s_at) / Fold change (Aza/veh), VPS36 (ProbeSet 11739960_a_at) / Fold change (ACY-1035/veh), VPS36 (ProbeSet 11739960_a_at) / RFU SYPL1 (11715823_x_at) / Fold change /veh SYPL1 (11715823_x_at) / RFU IGFBP7 (11715501_s_at) / Fold change /veh IGFBP7 (11715501_s_at) / RFU REEP3 (11722064_at) / Fold change /veh REEP3 (11722064_at) / RFU IGLL1 (11728026_x_at) / Fold change /veh IGLL1 (11728026_x_at): dose or concentration left out as unconfirmed
Conditions: MV-4-11 cells, 48 hours

With `Nc1ccc(-c2cccs2)cc1NC(=O)c1ccc2c(c1)cc(C1CC1)n2CCN1CCOCC1` [ACY-1035] the “RFU C10orf10 (11716521_a_at)” value was 34.07 RFU.
